± gives the expanded uncertainty stated by the source.
What was measured:
[1] = 298.15 K; 101.33 kPa; Liquid; Vibrating tube method
[2] = refractive index (Na D-line) (dimensionless); settings: 298.15 K; 101.33 kPa; Liquid; Standard Abbe refractometry

Compound | mass density [1] | refractive index [2]
CC(C)O [propan-2-ol] | 781.18 ± 0.15 kg/m3 | 1.3752 ± 0.00032
OCCCO [propan-1,3-diol] | 1049.68 ± 0.14 kg/m3 | 1.43851 ± 0.00032
O [water] | – | 1.33237 ± 0.00032

— the NIST ThermoML archive (doi:10.1016/j.fluid.2014.02.006)
